Patent publication US20160208016A1, “Anti-ADAM12 antibodies for the treatment of cancer” (UNIVERSITY OF COPENHAGEN, priority 2013, published 2016)

Tests used:
[1] = tested on: 293-VnR cells transfected with ADAM12Δcyt; test: In situ solid-phase gelatinase assay, 293-VnR cells transfected with ADAM12Δcyt; format: cell-based, human; conditions: 10 μM overnight vs vehicle only
Protocol: Data are expressed as the mean gelatin degradation (±s.d.) relative to the mean ADAM12Δcyt degradation value (set at 100%). (B) In situ solid-phase gelatinase assay of 293-VnR cells transfected with ADAM12Δcyt or control vector and treated with GM6001 (10 μM), TAPI-2 (10 μM), or vehicle only (control) overnight. Cells were stained for ADAM12 and for the nucleus (DAPI). The mean number of gelatin-degrading ADAM12-positive cells (±s.d.) is presented as a percentage of the total number of ADAM12-positive cells. (C) In situ solid-phase gelatinase assay of 293-VnR cells cotransfected with ADAM12Δcyt and control or MMP-14 siRNA. Mean data (±s.d.) are expressed relative to the mean siRNA control degradation value (set at 100%). Inset, Western blots of total cell lysates analyzed for MMP-14. […] Gelatin degradation was quantified by measuring the degraded area in μm^2 and correlated to the number of cells. […]
(A) In situ solid-phase gelatinase assay of HEK293 cells transfected with ADAM12Δcyt and immunostained for ADAM12, and DAPI staining. […] Precipitates and input samples were analysed by Western blotting with indicated antibodies. […] (E) Mean percentage cell-surface staining of αVβ3 integrin (LM609 antibody staining) for MCF7, MCF7-A12Δcyt, MCF7-A12Δcyt+dox, and MDA-MB-231 cell lines analyzed by FACS. […]

MCF7-A12Δcyt cells = test: Type I collagen-induced apoptosis in 3-D collagen cultures, MCF7-A12Δcyt; format: cell-based, human; conditions: 10 μM GM6001 every second day
Protocol: (§1) (A) MCF7, MCF7-A12Δcyt, and MCF7-A12Δcyt+dox cell lines were embedded in 3-D collagen and the mean percentage of apoptotic bodies (±s.d.) was determined from >500 cells per experiment. (B) Western blot analysis of ADAM12, MMP-14, BIK, and BIM from cells recovered from 3-D collagen. The bar graph depicts levels of BIK and BIM; determined by quantification of the band intensities (using ImageJ software) and normalized to actin. The MCF7 level was set to 1. (C,D) Mean percentage of apoptotic bodies (±s.d.) from >500 cells of 3-D collagen cultures of MCF7, MCF7-A12Δcyt, and MCF7-A12Δcyt+dox (C) and MDA-MB-231. (D) Cells treated every second day with control mouse IgG, 10 μg/ml 8F8, or 10 μM GM6001. (E) Western blot of cells recovered from 3-D cultures of MDA-MB-231 cells analyzed for MMP-14 after siRNA treatment. […]
(§2) (A) A representative micrograph of MCF7-A12Δcyt+dox cells extracted from 3-D cultures and stained with DAPI. Apoptosis was evaluated by counting the percentage of the number of cells with chromatin condensation and nuclear fragmentation (arrow=apoptotic bodies). […]
(§3) Cells were seeded on dishes coated with gelatin (10 μg/ml) coupled to Oregon Green® 488 dye (G-13186) from Molecular Probes (Life Technologies, Naerum, Denmark). […] For each experiment more than 1000 cells were counted and same type of experiment was repeated independently at least three times. […]

wild-type MCF7 cells = test: Type I collagen-induced apoptosis in 3-D collagen cultures, wild-type MCF7; format: cell-based, human; conditions: 10 μg/ml 8F8 or 10 μM GM6001 every second day
Protocol: as §1, §2, §3

MCF7-A12Δcyt+dox cells = test: Type I collagen-induced apoptosis in 3-D collagen cultures, MCF7-A12Δcyt+dox; format: cell-based, human; conditions: 10 μg/ml 8F8 or 10 μM GM6001 every second day
Protocol: as §1, §2, §3

MDA-MB-231 cells = test: Apoptosis in 3-D collagen cultures, MDA-MB-231; format: cell-based, human; conditions: 10 μg/ml 8F8 or 10 μM GM6001 every second day, compared with control cells
Protocol: as §1, §2, §3

αVβ3 integrin = αVβ3 integrin (UniProt P06756); test: cell-based or functional assay
Sequence of UniProt P06756 (P06756 31-1048, chain 1 of 2): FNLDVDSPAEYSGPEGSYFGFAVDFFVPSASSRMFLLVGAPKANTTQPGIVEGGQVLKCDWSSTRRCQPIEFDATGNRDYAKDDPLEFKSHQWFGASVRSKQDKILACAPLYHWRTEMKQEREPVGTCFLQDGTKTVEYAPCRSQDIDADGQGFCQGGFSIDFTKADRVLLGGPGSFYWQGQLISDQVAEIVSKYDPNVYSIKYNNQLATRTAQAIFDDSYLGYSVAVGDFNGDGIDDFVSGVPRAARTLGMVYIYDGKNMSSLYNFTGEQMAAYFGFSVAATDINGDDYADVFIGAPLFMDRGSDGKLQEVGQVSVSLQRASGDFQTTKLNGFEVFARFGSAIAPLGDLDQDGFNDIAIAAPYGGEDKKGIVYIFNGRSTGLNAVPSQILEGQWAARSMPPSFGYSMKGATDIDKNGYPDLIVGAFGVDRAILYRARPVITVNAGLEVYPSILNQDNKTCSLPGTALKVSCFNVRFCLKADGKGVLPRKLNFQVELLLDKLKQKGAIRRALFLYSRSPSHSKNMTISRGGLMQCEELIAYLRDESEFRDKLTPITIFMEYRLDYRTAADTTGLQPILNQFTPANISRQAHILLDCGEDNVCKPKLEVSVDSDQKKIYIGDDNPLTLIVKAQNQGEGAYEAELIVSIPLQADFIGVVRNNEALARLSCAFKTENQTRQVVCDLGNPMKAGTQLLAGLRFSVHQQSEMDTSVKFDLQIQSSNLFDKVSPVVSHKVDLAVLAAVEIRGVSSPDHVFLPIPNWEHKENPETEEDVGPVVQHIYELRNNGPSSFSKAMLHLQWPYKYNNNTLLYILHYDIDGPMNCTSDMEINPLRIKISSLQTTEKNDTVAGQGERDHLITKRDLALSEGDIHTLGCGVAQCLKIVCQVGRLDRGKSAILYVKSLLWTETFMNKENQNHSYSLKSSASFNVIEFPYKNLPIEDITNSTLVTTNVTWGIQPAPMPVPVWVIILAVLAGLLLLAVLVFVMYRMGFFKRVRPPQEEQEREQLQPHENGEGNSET
Sequence of UniProt P06756 (P05106 27-788, chain 2 of 2, further chain): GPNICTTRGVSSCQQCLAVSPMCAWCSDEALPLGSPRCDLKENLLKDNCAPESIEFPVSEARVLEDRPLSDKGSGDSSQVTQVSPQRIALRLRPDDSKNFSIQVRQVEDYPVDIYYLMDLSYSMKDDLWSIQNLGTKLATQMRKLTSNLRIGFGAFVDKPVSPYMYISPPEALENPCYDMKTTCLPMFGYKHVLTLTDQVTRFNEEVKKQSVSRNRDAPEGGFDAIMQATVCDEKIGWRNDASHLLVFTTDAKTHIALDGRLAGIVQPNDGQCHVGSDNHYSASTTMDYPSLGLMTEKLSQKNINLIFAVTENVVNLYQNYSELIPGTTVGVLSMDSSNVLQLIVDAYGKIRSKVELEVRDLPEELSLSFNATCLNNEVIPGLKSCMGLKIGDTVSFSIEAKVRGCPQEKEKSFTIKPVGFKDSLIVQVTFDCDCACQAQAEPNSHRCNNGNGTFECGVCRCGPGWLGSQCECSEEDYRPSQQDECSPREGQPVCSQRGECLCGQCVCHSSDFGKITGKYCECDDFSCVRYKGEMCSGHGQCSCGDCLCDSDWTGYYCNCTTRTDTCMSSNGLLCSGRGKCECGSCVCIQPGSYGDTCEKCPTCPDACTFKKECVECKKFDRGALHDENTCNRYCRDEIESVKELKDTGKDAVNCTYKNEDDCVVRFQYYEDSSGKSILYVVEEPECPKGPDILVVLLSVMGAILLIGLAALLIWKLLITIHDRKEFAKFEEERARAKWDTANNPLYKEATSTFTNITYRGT

Molecule | gelatin degradation [1] | fraction of apoptotic bodies (MCF7-A12Δcyt cells) | effect on apoptosis (apoptotic bodies, ApopTag) (wild-type MCF7 cells) | effect on apoptosis (apoptotic bodies, ApopTag) (MCF7-A12Δcyt+dox cells) | levels of apoptotic bodies (MDA-MB-231 cells) | reduction of gelatin degradation in MCF7-A12Δcyt cell cultures (αVβ3 integrin)
CNC(=O)[C@H](Cc1c[nH]c2ccccc12)NC(=O)[C@@H](CC(=O)NO)CC(C)C [GM6001] | significant reduction | significantly increased | no effects | no effects | significantly increased | –
CC(C)C[C@H](CC(=O)NO)C(=O)N[C@H](C(=O)N[C@@H](C)C(=O)NCCN)C(C)(C)C [TAPI-2] | significant reduction | – | – | – | – | –
mouse monoclonal antibody LM609 against αVβ3 integrin (Chemicon/Millipore) | – | – | – | – | – | 80%
